IC50 and Kd data for 3 molecules are collected here from patent publication US11634447B2 (priority 2012, dated 2023).

Where “and” joins values, the source holds several entries; their conditions need not be identical. Equal values may be shown once.

Test [1] deals with bacterial strain LF82 binding to the glycoprotein BSA-(Mannose)3. Kind of test: Bacterial Binding Assay (BBA). Conditions: read-out: Bacterial Binding Assay IC50, LF82/Luciferase strain binding to BSA-(Man)3 coated plates, luminescence. The test is classed as cell-based, Escherichia coli. Summed up: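 Inhibition of LF82/luciferase E. coli adhesion is read as luminescence after washing off unbound cells. Compound and bacteria (10^7 per well) are co-incubated 40-75 min at room temperature on wells coated with 0.5-2 μg/mL BSA-(Man)3, with BSA-only wells as background; IC50 values derived.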

Test [2] concerns the target T1, FimH-CRD (Escherichia coli, UniProt P08191).
T1 construct: The first 177 amino acids of the FimH protein are expressed as a fusion protein; thrombin tag (printed as 'fusion protein with thrombin') (cleaved yes); made in house; host or cells: bacteria (pET21b plasmid)
In words: Competitive binding assay by fluorescence polarization, assay 2 (compounds prepared by a robotics system, plates frozen and thawed). Also on record: species or system E. coli. The note with it: Assay 2 Kd, 5 nM Alexa 647 mannoside probe, 60 nM FimH-CRD, replicate values in one cell. As to the method:
The first 177 amino acids of the FimH protein are expressed as a fusion protein with thrombin in a pET21b plasmid in bacteria. This FimH protein sequence contains the carbohydrate recognition domain (CRD) and shall be termed FimH-CRD. Following bacterial expression of the protein, the FimH-CRD protein is purified to homogeneity and the thrombin tag removed by protease cleavage. A competitive binding assay by fluorescence polarization is performed using 5 nM of the Alexa 647 mannoside probe and 60 nM of the FimH-CRD. The samples are assayed in a low volume 384 well microtiter plate in a final volume of 20 μl. The final assay buffer conditions are the following, 50 mM Tris-Cl, ph 7.0, 100 mM NaCl, 1 mM EDTA, 5 mM β-mercaptoethanol, 0.05% BSA and 2.5% DMSO. Two assays are performed for FimH, termed assay 1 or assay 2. The assay conditions are the same for both assays except the following: assay 1 has compounds prepared by manual dilution in a serial dilution factor with 12-point dose response while assay 2 has compounds prepared by a robotics system also through a serial dilution factor (12 point dose response) and initially prepared in duplicate in 384 well-Corning polypropylene round bottom plates. The assay 2 plates have compound which is then frozen and must be thawed prior to use. Initially the Alexa 647 probe and the FimH-CRD are added to the assay buffer and then 0.5 μl of test compound (assay 1 or 2) between 0.4 nM to 75 μM final concentration are added (12 point titration with 3-fold serial dilution). Control wells for the Alexa 647 probe are prepared with the same conditions except for the addition of the FimH-CRD protein. Plates are then incubated for 5 hrs at room temperature in the dark and under humid conditions to prevent drying. Plates are read using the SpectraMax Paradigm multi-mode plate reader and the appropriate fluorescent polarization detection cartridge (Alexa-647).
Alexa 647 mannoside probe is prepared using the similar procedure reported for FAM mannoside (Han, Z. et. al., 2010, J. Med. Chem., 53, 4779) and is described in the scheme below.
To a blue colored stirred solution of (2S,3S,4S,5S,6R)-2-(4-aminobutoxy)-6-(hydroxymethyl)tetrahydropyran-3,4,5-triol (2.21 mg, 0.009 mmol) and the (2E)-2-[(2E,4E)-5-[3,3-dimethyl-5-sulfonato-1-(3-sulfonatopropyl)indol-1-ium-2-yl]penta-2,4-dienylidene]-3-[6-(2,5-dioxopyrrolidin-1-yl)oxy-6-oxo-hexyl]-3-methyl-1-(3-sulfonatopropyl)indoline-5-sulfonate (Potassium Ion (3)) (4.9 mg, 0.0044 mmol) in DMF (44 μL) is added Et3N (5.4 mg, 7.0 μL, 0.053 mmol) at RT. The solution is stirred at room temperature over night, concentrated, dissolved in water and purified on 12 g C-18 silica gel cartridge on Isolera system using acetonitrile in water (0 to 40%, 10 CV) and followed by lyophilization to afford Alexa 647 mannoside probe (3.3 mg, 34%) as deep blue solid.
The Kd values of the compounds are determined from dose response curves using twelve concentrations per compound in duplicate. Curves are fitted to data points using Fluorescence Polarization competitive displacement analysis, and Kds are interpolated from the resulting curves using GraphPad Prism software, version […] (GraphPad software Inc., San Diego, Calif., USA).

Test [3] addresses T1, FimH-CRD. In words: Competitive binding assay by fluorescence polarization, assay 1 (compounds prepared by manual dilution). Also on record: species or system E. coli. In outline:
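FimH-CRD (residues 1-177, tag removed) at 60 nM competed against 5 nM Alexa 647 mannoside probe in 50 mM Tris-Cl pH 7.0, 100 mM NaCl, 1 mM EDTA, 5 mM β-mercaptoethanol, 0.05% BSA, 2.5% DMSO; 5 h, room temperature, dark. Compounds 0.4 nM-75 μM final, 12-point 3-fold, duplicate; Kd from fluorescence polarization displacement curves. Assay 1: manual dilution; assay 2: robotic dilution, plates frozen/thawed.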
For orientation: Fluorescence polarisation rises when a labelled molecule tumbles more slowly, as on binding a larger partner.

Where [4] appears, read: Assay 1 Kd, 5 nM Alexa 647 mannoside probe, 60 nM FimH-CRD, replicate values in one cell.

T1 sequence (P08191 22-177): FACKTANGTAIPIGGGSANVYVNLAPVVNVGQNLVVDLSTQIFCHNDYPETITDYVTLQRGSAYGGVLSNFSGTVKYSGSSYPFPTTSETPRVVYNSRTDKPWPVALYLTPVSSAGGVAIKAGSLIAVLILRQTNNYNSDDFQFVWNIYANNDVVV

Usually Kd stands for the concentration at which binding is half-saturated. For `O=C(NCCCCCCCCNC(=O)c1cccc([C@H]2O[C@H](CO)[C@@H](O)[C@H](O)[C@@H]2O)c1)c1cccc([C@H]2O[C@H](CO)[C@@H](O)[C@H](O)[C@@H]2O)c1` [Compound 14, (R,R,S,R,S)-N,N′-(Octane-1,8-diyl)bis(3-((2R,3S,4R,5S,6R)-3,4,5-trihydroxy-6-(hydroxymethyl)tetrahydro-2H-pyran-2-yl)benzamide)], in test [1], the IC50 turned out to be 4100 nM. Besides, the equilibrium dissociation constant (Kd) at FimH-CRD [2] was 43 nM and 6 nM and 14 nM; at FimH-CRD [3] (setting [4]) it was 11 nM and 13 nM.
Take `OC[C@H]1O[C@H](C/C=C/c2cccc(C#C[C@H]3O[C@H](CO)[C@@H](O)[C@H](O)[C@@H]3O)c2)[C@@H](O)[C@@H](O)[C@@H]1O` [Compound 40, ((2R,3S,4R,5S,6R)-2-(Hydroxymethyl)-6-[(E)-3-[3-[2-[(2R,3S,4R,5S,6R)-3,4,5-trihydroxy-6-(hydroxymethyl)tetrahydropyran-2-yl]ethynyl]phenyl]allyl]tetrahydropyran-3,4,5-triol)]: in test [1], the IC50 was 43 nM. For the same molecule, the Kd at FimH-CRD [2] was 8 nM and 10 nM; at FimH-CRD [3] (setting [4]), < 5 nM and 18 nM.
In the case of `OC[C@H]1O[C@H](c2cccc(OCCCOc3cccc([C@H]4O[C@H](CO)[C@@H](O)[C@H](O)[C@@H]4O)c3)c2)[C@@H](O)[C@@H](O)[C@@H]1O` [Compound 44, ((2R,3S,4R,5S,6R)-2-(Hydroxymethyl)-6-[3-[3-[3-[(2R,3S,4R,5S,6R)-3,4,5-trihydroxy-6-(hydroxymethyl)tetrahydropyran-2-yl]phenoxy]propoxy]phenyl]tetrahydropyran-3,4,5-triol)], in test [1], the IC50 was determined as 480 nM. Moreover, the Kd is 6 nM at FimH-CRD [2]; less than 5 nM on FimH-CRD [3] (setting [4]); less than 5 nM at FimH-CRD [3] (read-out: Assay 1 Kd, 5 nM Alexa 647 mannoside probe, 60 nM FimH-CRD, replicate values in one cell).
